Reference: patent US9149038B2, “4-amino-6-(heterocyclic)picolinates and 6-amino-2-(heterocyclic)pyrimidine-4-carboxylates and their use as herbicides” (Dow AgroSciences LLC, priority 2013, dated 2015)
Like-named read-outs stand apart in the source and are kept apart here.

Assays:
[1] = test system: Key Broadleaf Weed and Crop Species; assay: Post-Emergent Test II: postemergent herbicidal activity, visual rating after 14 d (Table 7); type: in vivo; details: post-emergence, 336 h; for pest or weed control at 35 g/ha: 35 g ai/ha; for pest or weed control at 70 g/ha: 70 g ai/ha; for pest or weed control at 140 g/ha: 140 g ai/ha
Method in brief: (§1)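 Visual 0-100% injury score (0 no injury, 100 complete kill) at 14 d post-spray, relative to untreated plants. Seedlings at 1st-2nd true leaf stage; track sprayer at 187 L/ha, highest rate plus ½×, ¼×, ⅛×, 1/16× serial dilutions. Subirrigated after treatment.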

[2] = test system: Key Grass and Sedge Weeds as well as Grass Crops; assay: Post-Emergent Test II: postemergent herbicidal activity, visual rating after 14 d (Table 8); type: in vivo; details: post-emergence, 336 h; for pest or weed control at 35 g/ha: 35 g ai/ha; for pest or weed control at 70 g/ha: 70 g ai/ha; for pest or weed control at 140 g/ha: 140 g ai/ha
Method in brief: as §1

[3] = ABUTH: velvetleaf (Abutilon theophrasti), read-out: Visual Growth Reduction (%) 14 Days After Application ABUTH
[4] = AMARE: redroot pigweed (Amaranthus retroflexus), read-out: Visual Growth Reduction (%) 14 Days After Application AMARE
[5] = BRSNN: oilseed rape, canola (Brassica napus), read-out: Visual Growth Reduction (%) 14 Days After Application BRSNN
[6] = CHEAL: lambsquarters (Chenopodium album), read-out: Visual Growth Reduction (%) 14 Days After Application CHEAL
[7] = EPHHL: wild poinsettia (Euphorbia heterophylla), read-out: Visual Growth Reduction (%) 14 Days After Application EPHHL
[8] = HELAN: sunflower (Helianthus annuus), read-out: Visual Growth Reduction (%) 14 Days After Application HELAN
[9] = barnyardgrass (Echinochloa crus-galli), read-out: Visual Growth Reduction (%) 14 Days After Application, ECHCG
[10] = giant foxtail (Setaria faberi), read-out: Visual Growth Reduction (%) 14 Days After Application, SETFA
[11] = maize, corn (Zea mays), read-out: Visual Growth Reduction (%) 14 Days After Application, ZEAMX
[12] = rice (Oryza sativa), read-out: Visual Growth Reduction (%) 14 Days After Application, ORYSA
[13] = wheat, spring (Triticum aestivum), read-out: Visual Growth Reduction (%) 14 Days After Application, TRZAS
[14] = yellow nutsedge (Cyperus esculentus), read-out: Visual Growth Reduction (%) 14 Days After Application, CYPES

COC(=O)c1nc(-c2c(F)ccc3c2OC(F)(F)O3)cc(N)c1Cl [Compound 90, Methyl 4-amino-3-chloro-6-(2,2,5-trifluorobenzo[d][1,3]dioxol-4-yl)picolinate]
60 to 74%: pest or weed control at 35 g/ha [1, 3] | pest or weed control at 140 g/ha [1, 5]
75 to 84%: pest or weed control at 70 g/ha [1, 3]
85 to 94%: pest or weed control at 140 g/ha [1, 3] | pest or weed control at 35 g/ha [1, 6]
95 to 100%: pest or weed control at 35 g/ha [1, 4] | pest or weed control at 70 g/ha [1, 4] | pest or weed control at 140 g/ha [1, 4] | pest or weed control at 70 g/ha [1, 6] | pest or weed control at 140 g/ha [1, 6]
0 to 29%: pest or weed control at 35 g/ha [1, 5] | pest or weed control at 70 g/ha [1, 5] | pest or weed control at 35 g/ha [1, 7] | pest or weed control at 70 g/ha [1, 7] | pest or weed control at 140 g/ha [1, 7] | pest or weed control at 35 g/ha [1, 8] | pest or weed control at 70 g/ha [1, 8] | pest or weed control at 140 g/ha [1, 8] | pest or weed control at 35 g/ha [2, 9] | pest or weed control at 70 g/ha [2, 9] | pest or weed control at 140 g/ha [2, 9] | pest or weed control at 35 g/ha [2, 10] | pest or weed control at 70 g/ha [2, 10] | pest or weed control at 140 g/ha [2, 10] | pest or weed control at 35 g/ha [2, 11] | pest or weed control at 70 g/ha [2, 11] | pest or weed control at 140 g/ha [2, 11] | pest or weed control at 35 g/ha [2, 12] | pest or weed control at 70 g/ha [2, 12] | pest or weed control at 140 g/ha [2, 12] | pest or weed control at 35 g/ha [2, 13] | pest or weed control at 70 g/ha [2, 13] | pest or weed control at 140 g/ha [2, 13] | pest or weed control at 35 g/ha [2, 14] | pest or weed control at 70 g/ha [2, 14] | pest or weed control at 140 g/ha [2, 14]
